Experimental data from patent US10072034B2, “Kinase inhibitors” (Respivert Limited, priority 2016, dated 2018).
Values after ≈ are worked out from the molar mass of the structure shown. Like-named read-outs stand apart in the source and are kept apart here.

Assays:
[1] = Solubility in fasted-state simulated colonic fluid (FaSSCoF) at pH 6.5; format: physicochemical; details: pH 6.5, 25° C.; for solubility thermodynamic at 24 h: fasted-state simulated colonic fluid (FaSSCoF), 25 °C, pH 6.5, fassgf or other biorelevant, thermodynamic from solid
Method: The solubilities of compounds of the invention in FaSSCoF at pH 6.5 are determined using a modification of a previously-reported procedure (Vertzoni, M., et al. Pharm. Res. 2010, 27, 2187-2196). In place of the bile salt extract employed in the original procedure (which extract is no longer available), the modified procedure uses a mixture of sodium taurocholate (0.15 g), glycocholic acid (0.15 g), ursodeoxycholic acid (0.05 g), cholic acid (0.05 g), and glycodeoxycholic acid (0.05 g). These five bile acids are ground together with a mortar and pestle to produce a fine white powder that is incorporated into the FaSSCoF, as outlined below.
FaSSCoF medium: Tris(hydroxymethyl)aminomethane (Tris; 0.275 g) and maleic acid (0.44 g) are dissolved in water (35 mL) to give a solution whose pH is adjusted to 6.5 by treatment with 0.5M NaOH (ca. 12 mL). The solution is then made up to 50 mL with water. A portion of this Tris/maleate buffer solution (ca. 25 mL) is added to a 0.5 L round-bottomed flask, before being treated with 0.00565 g of the bile acid mixture described above. Solutions of phosphatidylcholine (0.0111 g) in DCM (0.15 mL) and palmitic acid (0.0013 g) in DCM (0.15 mL) are added, then the organic solvent is evaporated off under reduced pressure at 40° C. until a clear solution, with no perceptible DCM odour, is achieved. The volume of the evaporated solution is adjusted to 50 mL by addition of the remainder of Tris/maleate buffer, then BSA (0.115 g) is added, before being dissolved by gentle agitation.
Solubility Determination: Test compounds are suspended in the pH 6.5 FaSSCoF medium to give a maximum final concentration of 2-10 mg/mL. The suspensions are equilibrated at 25° C. for 24 h, before being filtered through a glass fibre C filter. The filtrates are then diluted as appropriate for injection and quantification by HPLC with reference to a standard. Different volumes of the standard, diluted and undiluted sample solutions are injected and the solubilities are calculated using the peak areas determined by integration of the peak found at the same retention time as the principal peak in the standard injection.

p38 MAPKα = p38 MAPKα (Homo sapiens (Human), UniProt Q16539); experiment: p38 MAPKα enzyme inhibition (FRET, Z-LYTE; Method 2); format: biochemical
Sequence of p38 MAPKα (Q16539 whole entry): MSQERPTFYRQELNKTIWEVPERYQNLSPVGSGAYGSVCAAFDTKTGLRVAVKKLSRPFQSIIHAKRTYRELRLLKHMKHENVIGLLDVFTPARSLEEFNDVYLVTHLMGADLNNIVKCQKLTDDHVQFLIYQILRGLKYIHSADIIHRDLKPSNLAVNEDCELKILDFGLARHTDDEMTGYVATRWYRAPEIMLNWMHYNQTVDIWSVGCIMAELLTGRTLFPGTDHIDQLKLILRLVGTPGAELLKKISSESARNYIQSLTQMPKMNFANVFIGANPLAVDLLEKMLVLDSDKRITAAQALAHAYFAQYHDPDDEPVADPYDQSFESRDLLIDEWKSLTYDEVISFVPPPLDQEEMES
Method: The enzyme inhibitory activities of compounds disclosed herein are determined by FRET using synthetic peptides labelled with both donor and acceptor fluorophores (Z-LYTE, Invitrogen Ltd., Paisley, UK).
The inhibitory activities of test compounds against the p38 MAPKα isoform (MAPK14: Invitrogen) are evaluated indirectly by determining the level of activation/phosphorylation of the down-stream molecule, MAPKAP-K2. The p38 MAPKα protein (80 ng/mL, 2.5 μL) is mixed with the test compound (2.5 μL of either 4 μg/mL, 0.4 μg/mL, 0.04 μg/mL or 0.004 μg/mL) for 2 hr at RT. […] The mixture is incubated for 1 hr at RT. Development reagent (protease, 5 μL) is added for 1 hr prior to detection in a fluorescence microplate reader (Varioskan® Flash, ThermoFisher Scientific).
This method follows the same steps as Method 1 above, but utilises a higher concentration of the p38 MAPKα protein (2.5 μL of 200 ng/mL protein instead of 2.5 μL of 80 ng/mL protein) for mixing with the test compound (tested at either 1 μg/mL, 0.1 μg/mL, 0.01 μg/mL or 0.001 μg/mL).
In all cases, the site-specific protease cleaves non-phosphorylated peptide only and eliminates the FRET signal. Phosphorylation levels of each reaction are calculated using the ratio of coumarin emission (donor) over fluorescein emission (acceptor), for which high ratios indicate high phosphorylation and low ratios indicate low phosphorylation levels. […]

[2] = system: IFN gamma release in PBMCs; experiment: IFN gamma release in CD3/CD28 stimulated PBMC cells (assay (c)); format: cell-based; details: Homo sapiens, read-out: IC50 Values in PBMCs IFNγ
Method: PBMCs from healthy subjects are separated from whole blood using a density gradient (Lymphoprep, Axis-Shield Healthcare). Cells are added to a 96 well plate pre-coated with a mixture of CD3/CD28 monoclonal antibodies (0.3 μg/mL eBioscience and 3 μg/mL BD Pharmingen respectively). Compound at the desired concentration is then added to the wells and the plate left for 3 days under normal tissue culture conditions. Supernatants are harvested and IL-2 and IFN gamma release determined by Sandwich ELISA (Duo-set, R&D System). The IC50 is determined from the dose response curve.

Jurkat cells = experiment: Cell cytotoxicity assay, Jurkat cell viability (assay (r)); format: cell-based, human; details: 24 hours
Method: 1×10^5 Jurkat cells (immortalised human T lymphocytes) are added to the appropriate number of wells of a 96 well plate in 100 μL of media (RPMI supplemented with 10% foetal bovine serum). 1 μL of DMSO control (final concentration 1.0% v/v) or test compound (final concentration 20, 5 or 1 μg/mL) is added to the wells and incubated at 37° C., 5% CO2. After 24 hours, the plate is centrifuged at 1200 rpm for 3 minutes and the supernatant discarded. Cells are then resuspended in 150 μL (final concentration 7.5 μg/mL) of propidium iodide (PI) in PBS and incubated at 37° C., 5% CO2 for 15 minutes. After 15 minutes, cells are analysed by flow cytometry (BD accuri) using the FL3 window. The % viability is calculated as the % of cells that are P negative in the test wells normalised to the DMSO control.

IL-8 release in PBMCs = experiment: LPS-induced IL-8 release in PBMC cells (assay (b)); format: cell-based; details: Homo sapiens, LPS-stimulated PBMCs
Description: Peripheral blood mononuclear cells (PBMCs) from healthy subjects are separated from whole blood using a density gradient (Lymphoprep, Axis-Shield Healthcare). […] The supernatant is harvested for determination of IL-8 and TNFα concentrations by sandwich ELISA (Duo-set, R&D systems) and read on the fluorescence microplate reader (Varioskan® Flash, ThermoFisher Scientific).

[3] = Run 1, read-out: pH 6.5 FaSSCoF Solubility Run 1
[4] = Run 2, read-out: pH 6.5 FaSSCoF Solubility Run 2

Structure (SMILES): C#Cc1cc(Nc2nccc(Oc3ccc(NC(=O)Nc4cc(C(C)(C)C)nn4-c4ccc(C)cc4)c4ccccc34)n2)cc(C(=O)NCCOCCOCCOC)c1 [Reference Compound B, 3-((4-((4-(3-(3-(tert-butyl)-1-(p-tolyl)-1H-pyrazol-5-yl)ureido)naphthalen-1-yl)oxy)pyrimidin-2-yl)amino)-5-ethynyl-N-(2-(2-(2-methoxyethoxy)ethoxy)ethyl)benzamide]
- solubility thermodynamic at 24 h [1, 3]: < 1 µg/mL
- solubility thermodynamic at 24 h [1, 4]: < 1 µg/mL

Structure (SMILES): COc1cc(Nc2cc(Oc3ccc(NC(=O)Nc4cc(C(C)(C)C)cc(NS(C)(=O)=O)c4OC)c4ccccc34)ccn2)cc(OCCOCCOCC(=O)O)c1 [Example 3]
- IC50 (p38 MAPKα): 23 nM
- IC50 [2]: 31.8 nM
- solubility thermodynamic at 24 h [1, 3]: 280 µg/mL (≈ 342 µM)
- solubility thermodynamic at 24 h [1, 4]: 200 µg/mL (≈ 245 µM)
- % Viability at 1 μg/mL (Jurkat cells): 99%
- % Viability at 5 μg/mL (Jurkat cells): 99%
- % Viability at 20 μg/mL (Jurkat cells): 96%
- IC50 (IL-8 release in PBMCs): 17.3 nM

Structure (SMILES): COc1cc(Nc2nccc(Oc3ccc(NC(=O)Nc4cc(C(C)(C)C)cc(NS(C)(=O)=O)c4OC)c4ccccc34)n2)cc(OCCOCCOCCC(=O)O)c1 [Reference Compound A, 3-(2-(2-(3-((4-((4-(3-(5-(tert-butyl)-2-methoxy-3-(methylsulfonamido)phenyl)ureido)naphthalen-1-yl)oxy)-pyrimidin-2-yl)amino)-5-methoxyphenoxy)ethoxy)ethoxy)propanoic acid]
- pH 6.5 FaSSCoF Solubility Run 1 ([1]; 24 h, Run 1): 0.007 mg/mL
- pH 6.5 FaSSCoF Solubility Run 2 ([1]; 24 h, Run 2): 0.007 mg/mL
- % Viability at 1 μg/mL (Jurkat cells): 96%
- % Viability at 5 μg/mL (Jurkat cells): 93%
- % Viability at 20 μg/mL (Jurkat cells): 48%
